The term EC50 denotes the concentration that produces a half-maximal response.

SMILES strings stand for the structures.

These results are taken from US9309187B2, “EP2 receptor agonists” (TAKEDA GMBH, priority 2012, dated 2016).

Holding throughout (format): cell-based
The test system of assay [1] is normal human lung fibroblasts (NHLF), TGFβ-induced alpha-smooth muscle actin. Briefly: Inhibition of the myofibroblast transition of normal human lung fibroblasts (NHLF). To be noted: Fibroblast; 1 ng/mL human TGFβ, 24 h, alpha-smooth muscle actin western blot; read-out: inhibition of NHLF myofibroblast transition pIC50 (-log IC50) (converted). The method, then:
Method for Determination of the Inhibition of the Myofibroblast Transition of Normal Human Lung Fibroblasts (NHLF)
200,000 NHLF-cells were seeded into each well of six-well cell culture plates in full-medium and starved for 24 h after initial 24 h incubation at 37° C., 5% CO2 and 95% humidity. Before inducing fibroblast-to-myofibroblast conversion by adding 1 ng/mL human TGFβ serial dilution of test compound was administered. After 24 h the cells were collected and processed to lysates as described subsequently.
Cells were washed, twice in PBS, trypsinated and centrifuged at 500×g for 10 min. Afterwards the cell pellet was resuspended in 150 microL freshly prepared lysis buffer (50 mM Hepes, pH 7.5, 150 mM NaCl, 1.5 mM MgCl2, 10% […], 1% Triton X-100, 0.5% Desoxycholat, 0.2% SDS, 1 mM EGTA (ethylene glycol tetraacetic acid), 100 mM NaF, 10 mM Na4P2O7, 1 mM Na-Vanadat, 1 mM PMSF and 50 U/mL Benzonase (Merck KGaA, Darmstadt, Germany), one Phosphatase Inhibitor Cocktail tablet (Complete Mini from Roche Diagnostics, Mannheim, Germany) per 10 ml buffer and stored at −80° C. for further use. Protein concentration was determined following instructions of the BCA Protein Assay (Pierce Biotechnology, Rockford, Ill., USA). Photometric measurements were performed with the microplate reader Sunrise from Tecan Group Ltd., (Männedorf, Switzerland). 6 μg of protein of the different samples were separated on a 10% SDS (Sodium Dodecyl Sulfate) discontinuous polyacrylamide gel electrophoresis. Thereafter, proteins were blotted from the gel onto a nitrocellulose transfer membrane for 2 h at 400 mA in a wet-blot-chamber. Thereafter the membrane was blocked in 5% milkpowder in PBS (Phosphate Buffered Saline) containing 0.1% Tween 20 at 4° C. overnight. Subsequently the membrane was hybridized for 4 h with the primary anti-Alpha-smooth muscle actin antibody (1:2,000 in 5% milkpowder in PBS), washed three times in PBS containing 0.1% Tween 20. This was followed by incubation with the secondary horseradish-coupled goat anti-mouse IgG detection-antibody (1:10,000 in 5% milkpowder in PBS) for 2 h. After final washing with PBS containing 0.1% Tween 20 (three times for 10 min each) the blot was developed by using a chemiluminescence detection system according to the manufacturer instructions and a luminescent image analyzer (Fuji LAS 1000 Pro).
(§1) The numbers of the compounds correspond to the examples numbers.
A general note: Immunoblotting shows a protein as a band on a membrane.

The test system of assay [2] is normal human lung fibroblasts (NHLF). Briefly: Inhibition of the proliferation of normal human lung fibroblasts (NHLF). As to conditions: Fibroblast, IL1β (50 pg/mL) and bFGF (10 ng/mL) for 36 h, methyl-3H thymidine incorporation, read-out: inhibition of NHLF proliferation pIC50 (-log IC50) (converted). Here is the method: Method for Determination of the Inhibition of the Proliferation of Normal Human Lung Fibroblasts (NHLF)
16,500 NHLF-cells were seeded in each well of 24-well cell culture plates and were subsequently cultivated for 3.5 days. Thereafter cell culture medium was replaced by non-serum containing medium and cells were starved for 24 h. Subsequently a serial dilution of test compound was added and cells were stimulated with IL1β (Interleukine 1 beta) (50 pg/mL) and bFGF (basic Fibroblast Growth Factor) (10 ng/mL) for 36 h. For DNA-synthesis (Desoxyribonucleic Acid-synthesis) measurement methyl-^3H thymidine was added to the cells for the last 7 h of the 36 h incubation period. Thereafter the radioactive labeled cells were processed for measurement of the incorporated radioactivity as a marker for DNA-synthesis and thus proliferation. For that purpose the cell culture supernatants were removed, adherent cells washed once with ice-cold PBS and fixed in ice-cold 10% (w/v) trichloroacetic acid (TCA) for 30 min. Thereafter TCA was discarded and the DNA of the fixed cells hydrolyzed by administering 0.2 N NaOH. The radioactivity containing NaOH was then transferred into scintillation vials, scintillation liquid added and radioactivity was counted (L56500, Beckman Counter). Test compounds were dissolved in DMSO to a stock concentration of 10 mM. After administration of the compound to the cell cultures the final DMSO concentration was 0.1%. Inhibition of proliferation by the various concentrations of test compound was calculated related to 0.1% DMSO-treated control cells.
as §1
A general note: Incorporation of labelled thymidine or its analogues reports DNA synthesis.

The target of assay [3] is T1, human prostanoid receptor EP2 (Homo sapiens, UniProt P43116).
T1 construct: expressed in transfected cells; host or cells: CHO-K1 (CHOp6CreLuc-huEP2)
T1 sequence (P43116 whole entry): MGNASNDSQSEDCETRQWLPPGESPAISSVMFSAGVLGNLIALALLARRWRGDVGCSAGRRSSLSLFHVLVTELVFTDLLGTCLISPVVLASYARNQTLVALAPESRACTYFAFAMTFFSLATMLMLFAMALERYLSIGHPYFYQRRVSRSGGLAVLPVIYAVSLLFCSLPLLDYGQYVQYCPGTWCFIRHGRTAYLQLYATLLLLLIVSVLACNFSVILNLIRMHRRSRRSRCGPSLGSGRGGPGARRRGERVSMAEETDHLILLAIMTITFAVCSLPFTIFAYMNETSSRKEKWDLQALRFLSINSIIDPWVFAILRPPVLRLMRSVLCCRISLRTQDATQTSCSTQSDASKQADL
Briefly: EP2 cAMP release assay in CHOp6CreLuc-huEP2 cells (CRE-luciferase readout). As to conditions: CHOp6CreLuc-huEP2 cells, 4 hours at 37° C.; reported as range bins; read-out: EP2 cAMP release assay pEC50 (-log EC50) (converted). Here is the method:
Method for Measuring cAMP Release in Human EP2 Stably Transfectant Cells:
The potency and efficacy of EP2 agonists have been determined via measuring cAMP release in stably transfectant CHO-K1 cell expressing the human prostanoid receptor EP2 and luciferase enzyme regulated via a 6 times CRE (cAMP response element) containing transcriptional promoter. CHOp6CreLuc-huEP2 cells were seeded into 384-well plate (1000 cells per well) in DMEM/F12 (Dulbecco's Modified Eagle Medium/Nutrient Mixture F12) cell culture medium containing 2% FCS (Fetal Calf Serum) and 500 μg/ml G418 24 hours prior to the experiment. Test compound was added as serial dilutions while keeping the final DMSO concentration constant in each well. […] Cells were incubated together with test compound or butaprost for 4 hours at 37° C. The cAMP release was determined indirectly via luciferase activity that directly correlated to the amount of luciferase enzyme expressed in response to cAMP regulated promoter activity. The luciferase activity was determined by addition of luciferin containing buffer and subsequent quantification of resulting luminescence. Each sample was measured in quadruplicates per experiment and half-maximal effective concentration (EC50) and relative maximal effect compared to butaprost was determined from 3 independent experiments with GraphPad Prism Software. A compound that achieved over 80% of the maximal effect of butaprost was considered as full agonist.
For the following compounds the potency was determined in the cAMP release assay applying human EP2 transfectant CHOp6CreLuc-huEP2 cells. […] The numbers of the compounds correspond to the examples numbers.
EP2 cAMP Release Assay: pEC50

In the case of `O=C(O)/C=C/c1cccc(NC(=O)c2cc(-c3ccccc3)cc3ccccc23)c1` [Example 1, (2E)-3-(3-{[(3-phenylnaphthalen-1-yl)carbonyl]amino}phenyl)prop-2-enoic acid], the figures for the IC50 in assay [1] and in assay [2] were 0.316 to 3.16 nM and 1.58 to 15.8 nM, respectively. Also, the EC50 in assay [3] was 0.00631 to 0.1 nM.
On to `O=C(O)/C=C/c1ccc(Cl)c(NC(=O)c2cc(-c3ccccc3)cc3ccccc23)c1` [Example 3, (2E)-3-(4-chloro-3-{[(3-phenylnaphthalen-1-yl)carbonyl]amino}phenyl)prop-2-enoic acid], for which the EC50 in assay [3] is 0.00631 to 0.1 nM.
For the compound `O=C(O)/C=C/c1ccc(F)c(NC(=O)c2cc(-c3cccc(F)c3)cc3ccccc23)c1` [Example 10, (2E)-3-{3-[({3-[3-fluorophenyl]naphthalen-1-yl}carbonyl)amino]-4fluorophenyl}prop-2-enoic acid], the IC50 is 0.316 to 3.16 nM in assay [1] and 1.58 to 15.8 nM in assay [2]. For the same compound, the EC50 in assay [3] was 0.00631 to 0.1 nM.
In the same order, the values of `O=C(O)/C=C/c1ccc(F)c(NC(=O)c2cc(-c3ccccc3F)cc3ccccc23)c1` [Example 9, (2E)-3-{3-[({3-[2-fluorophenyl]naphthalen-1-yl}carbonyl)amino]-4fluorophenyl}prop-2-enoic acid] are 0.316 to 3.16 nM, 1.58 to 15.8 nM and 0.00631 to 0.1 nM.
On the same counts, the results for `O=C(O)/C=C/c1ccc(F)c(NC(=O)c2cc(-c3ccccc3)cc3ccccc23)c1` [Example 2, (2E)-3-(4-fluoro-3-{[(3-phenylnaphthalen-1-yl)carbonyl]amino}phenyl)prop-2-enoic acid] are 0.316 to 3.16 nM, 1.58 to 15.8 nM and 0.00631 to 0.1 nM.
